From patent US8389500B2, “Fused heterocyclic compounds as ion channel modulators” (Gilead Sciences, Inc., priority 2008, dated 2013)

Target: T1, wild-type human cardiac sodium channel, hNav1.5 (late sodium current) (Homo sapiens, UniProt Q14524)
T1 construct: host or cells: HEK293
Test: Late INa screening assay (PatchXpress whole cell patch clamp)
Format: cell-based
Settings: 10 μM test compound; HEK293 hNav1.5; late INa generated with 10 μM Tefluthrin (some experiments 50 nM ATX II); read-out: Late INa % blk (10 μM test cmpd)
Procedure: The late sodium current (Late INa) and peak sodium current (Peak INa) assays are performed on an automated electrophysiology platform, PatchXpress 7000A (MDS Analytical Technologies, Sunnyvale, Calif.), which uses the whole cell patch clamp technique to measure currents through the cell membrane of up to 16 cells at a time. The assay uses an HEK293 (human embryonic kidney) cell line heterologously expressing the wild-type human cardiac sodium channel, hNav1.5, purchased from Millipore (Billerica, Mass.). No beta subunits were coexpressed with the Na channel alpha subunit. Cells are maintained with standard tissue culture procedures and stable channel expression is maintained with 400 μg/ml Geneticin in the culture medium. […] Experiments are carried out at 24-27° C.
For both the Late INa and Peak INa assays, series resistance compensation is set to 50% and whole-cell compensation is performed automatically. […] Currents through open sodium channels are automatically recorded and stored in the DataXpress2 database (MDS Analytical Technologies, Sunnyvale, Calif.). Analysis is performed using DataXpress2 analysis software and data are compiled in Excel.
Compound stocks are routinely made in glass vials to 10 mM in dimethyl sulfoxide (DMSO). In some cases, when compounds are not soluble in DMSO, they are made in 100% ethanol. Stocks are sonicated as necessary. The extracellular solution for screening Late INa is composed of: 140 mM NaCl, 4 mM KCl, 1.8 mM CaCl2, 0.75 mM MgCl2, and 5 mM HEPES with pH adjusted to 7.4 using NaOH. The extracellular solution for screening Peak INa is composed of: 20 mM NaCl, 120 mM N-methyl-D glucamine, 4 mM KCl, 1.8 mM CaCl2, 0.75 mM MgCl2, and 5 mM HEPES with pH adjusted to 7.4 using HCl. The intracellular solution used to perfuse the inside of the cells for both the Late INa and Peak INa assays contains: 120 mM CsF, 20 mM CsCl, 5 mM EGTA, 5 mM HEPES and pH adjusted to 7.4 with CsOH. […] The 0Na extracellular solution used at the end of each experiment for the Late INa and Peak INa assays to measure baseline current contains: 140 mM N-methyl-D-glucamine; 4 mM KCl; 1.8 mM CaCl2; 0.75 mM MgCl2; 5 mM HEPES and pH was adjusted to 7.4 with HCl.
For the Late INa assay, sodium channels are activated every 10 seconds (0.1 Hz) by depolarizing the cell membrane to −20 mV for 250 milliseconds (ms) from a holding potential of −120 mV. In response to a −20 mV voltage step, typical Nav1.5 sodium currents activate rapidly to a peak negative current and then inactivate nearly completely within […].
All compounds are tested to determine their activity in blocking the late sodium current. Late INa current is generated by adding 10 μM Tefluthrin (pyrethroid) to the extracellular solution while recording Na currents For some experiments, 50 nM ATX II (sea anemone toxin), another late Na activator, was used to generate the late component. […] After establishing the whole cell recording configuration, late INa activators are added to each well 4 times over a 16-17 minute period so that the late component of the Na current reaches a stable value. […] Measurements are made at the end of exposure to the third compound addition and values are normalized to the current level when all Na^+ is removed from the extracellular solution after two additions of ONa-ECF. Results are reported as percent block of late INa

T1 sequence (Q14524 whole entry): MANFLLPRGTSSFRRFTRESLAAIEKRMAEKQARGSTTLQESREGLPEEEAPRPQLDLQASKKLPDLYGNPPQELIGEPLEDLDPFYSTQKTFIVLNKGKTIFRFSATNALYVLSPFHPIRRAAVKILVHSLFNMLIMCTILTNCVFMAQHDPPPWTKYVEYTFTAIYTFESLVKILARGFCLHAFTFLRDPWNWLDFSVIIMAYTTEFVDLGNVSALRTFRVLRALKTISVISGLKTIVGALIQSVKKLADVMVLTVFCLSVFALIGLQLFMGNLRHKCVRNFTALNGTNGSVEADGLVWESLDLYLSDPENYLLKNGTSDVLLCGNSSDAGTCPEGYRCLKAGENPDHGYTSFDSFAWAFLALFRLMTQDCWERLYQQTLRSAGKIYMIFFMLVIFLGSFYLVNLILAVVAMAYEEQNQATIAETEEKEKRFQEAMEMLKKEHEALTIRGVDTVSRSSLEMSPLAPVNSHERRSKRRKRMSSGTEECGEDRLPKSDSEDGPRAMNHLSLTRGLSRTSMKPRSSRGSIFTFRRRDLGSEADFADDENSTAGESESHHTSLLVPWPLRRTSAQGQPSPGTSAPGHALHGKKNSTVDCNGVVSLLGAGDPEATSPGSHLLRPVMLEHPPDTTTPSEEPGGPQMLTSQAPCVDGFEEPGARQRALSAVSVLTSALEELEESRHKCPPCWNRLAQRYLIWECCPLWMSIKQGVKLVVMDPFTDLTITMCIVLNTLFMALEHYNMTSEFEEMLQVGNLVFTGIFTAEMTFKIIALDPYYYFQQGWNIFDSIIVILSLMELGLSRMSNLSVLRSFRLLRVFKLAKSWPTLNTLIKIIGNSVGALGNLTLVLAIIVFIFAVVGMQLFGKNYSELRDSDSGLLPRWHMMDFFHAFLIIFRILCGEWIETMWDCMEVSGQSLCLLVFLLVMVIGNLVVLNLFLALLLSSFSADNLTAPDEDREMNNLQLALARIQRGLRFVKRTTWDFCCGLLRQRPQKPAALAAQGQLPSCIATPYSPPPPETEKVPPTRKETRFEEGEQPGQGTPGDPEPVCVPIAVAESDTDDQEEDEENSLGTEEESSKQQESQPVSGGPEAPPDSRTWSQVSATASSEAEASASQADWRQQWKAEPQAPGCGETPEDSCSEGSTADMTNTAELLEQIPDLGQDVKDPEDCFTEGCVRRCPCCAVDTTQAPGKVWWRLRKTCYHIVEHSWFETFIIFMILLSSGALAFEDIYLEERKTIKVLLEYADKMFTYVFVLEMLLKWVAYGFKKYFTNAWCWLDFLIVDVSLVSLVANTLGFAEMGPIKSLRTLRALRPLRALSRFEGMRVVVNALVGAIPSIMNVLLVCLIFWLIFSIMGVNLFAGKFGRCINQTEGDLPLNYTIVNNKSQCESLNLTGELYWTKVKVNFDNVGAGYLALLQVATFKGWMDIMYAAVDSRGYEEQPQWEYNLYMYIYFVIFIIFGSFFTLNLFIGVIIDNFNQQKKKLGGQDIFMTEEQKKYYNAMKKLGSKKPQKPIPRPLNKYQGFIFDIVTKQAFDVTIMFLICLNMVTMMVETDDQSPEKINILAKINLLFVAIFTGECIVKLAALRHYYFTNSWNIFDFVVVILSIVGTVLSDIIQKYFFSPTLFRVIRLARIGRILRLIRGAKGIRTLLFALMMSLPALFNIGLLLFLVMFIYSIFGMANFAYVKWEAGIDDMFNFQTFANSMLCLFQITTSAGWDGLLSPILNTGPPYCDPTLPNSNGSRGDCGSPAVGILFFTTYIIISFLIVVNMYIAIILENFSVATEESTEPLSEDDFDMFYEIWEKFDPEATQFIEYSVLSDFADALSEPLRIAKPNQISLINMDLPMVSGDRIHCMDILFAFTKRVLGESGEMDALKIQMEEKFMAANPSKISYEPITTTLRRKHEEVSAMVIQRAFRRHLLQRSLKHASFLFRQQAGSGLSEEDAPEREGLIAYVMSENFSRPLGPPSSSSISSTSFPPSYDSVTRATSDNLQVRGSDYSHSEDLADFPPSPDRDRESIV

| Compound | inhibition at 10 µM [%] |
| --- | --- |
| CS(=O)(=O)Nc1ccc(-c2cc(C(F)(F)F)ccc2F)c(Cl)c1 [PT-070, N-[2-chloro-2′-fluoro-5′-(trifluoromethyl)biphenyl-4-yl]methanesulfonamide] | 69.7 |
| CS(=O)(=O)Nc1ccc(-c2cc(F)c(F)c(F)c2)c(Cl)c1 [PT-071, N-(2-chloro-3′,4′,5′-trifluorobiphenyl-4-yl)methanesulfonamide] | 59.5 |
| O=S(=O)(Nc1ccc(-c2ccc(Oc3ccccc3)cc2)cc1)C1CC1 [PT-072, N-(4′-phenoxybiphenyl-4-yl)cyclopropanesulfonamide] | 35.6 |
| Cc1cc(N(Cc2cccnc2)S(C)(=O)=O)ccc1-c1cccc(OC(F)(F)F)c1 [PT-073, N-[2-methyl-3′-(trifluoromethoxy)biphenyl-4-yl]-N-(pyridin-3-ylmethyl)methanesulfonamide] | 64.4 |
| CS(=O)(=O)Nc1ccc(-c2ccc(Cl)c(F)c2)cc1OC(F)(F)F [PT-074, N-[4′-chloro-3′-fluoro-3-(trifluoromethoxy)biphenyl-4-yl]methanesulfonamide] | 24.2 |
| CS(=O)(=O)Nc1ccc(-c2ccc(C(F)(F)F)cc2)cc1OC(F)(F)F [PT-075, N-[3-(trifluoromethoxy)-4′-(trifluoromethyl)biphenyl-4-yl]methanesulfonamide] | 24.4 |
| CS(=O)(=O)Nc1ccc(-c2cccc(C(F)(F)F)c2)cc1OC(F)(F)F [PT-076, N-[3-(trifluoromethoxy)-3′-(trifluoromethyl)biphenyl-4-yl]methanesulfonamide] | 18.7 |
| COCCN(c1ccc(-c2ccc(Cl)c(F)c2)c(Cl)c1)S(C)(=O)=O [PT-077, N-(2,4′-dichloro-3′-fluorobiphenyl-4-yl)-N-(2-methoxyethyl)methanesulfonamide] | 27.2 |
| CS(=O)(=O)Nc1ccc(-c2ccc(OC(F)(F)F)cc2)c(F)c1 [PT-078, N-[2-fluoro-4′-(trifluoromethoxy)biphenyl-4-yl]methanesulfonamide] | 49.1 |
| CS(=O)(=O)Nc1ccc(-c2cccc(C(F)(F)F)c2)c(F)c1 [PT-079, N-[2-fluoro-3′-(trifluoromethyl)biphenyl-4-yl]methanesulfonamide] | 53.2 |
| CS(=O)(=O)Nc1ccc(-c2ccc(C(F)(F)F)cc2)c(F)c1 [PT-080, N-[2-fluoro-4′-(trifluoromethyl)biphenyl-4-yl]methanesulfonamide] | 66 |
| O=S(=O)(C1CC1)N(Cc1cccnc1)c1ccc(-c2cccc(OC(F)(F)F)c2)c(Cl)c1 [PT-081, N-[2-chloro-3′-(trifluoromethoxy)biphenyl-4-yl]-N-(pyridin-3-ylmethyl)cyclopropanesulfonamide] | 40.4 |
| CS(=O)(=O)Nc1ccc(-c2ccc(OC(F)(F)F)cc2)cc1 [PT-086, N-[4′-(trifluoromethoxy)biphenyl-4-yl]methanesulfonamide] | 9.4 |
| COc1cc(N(CC(=O)O)S(C)(=O)=O)ccc1-c1cccc(OC(F)(F)F)c1 [PT-089, N-[2-methoxy-3′-(trifluoromethoxy)biphenyl-4-yl]-N-(methylsulfonyl)glycine] | -4.1 |
| CS(=O)(=O)N(CC(=O)O)c1ccc(-c2ccc(Cl)c(F)c2)c(Cl)c1 [PT-092, N-(2,4′-dichloro-3′-fluorobiphenyl-4-yl)-N-(methylsulfonyl)glycine] | -2.4 |
| CS(=O)(=O)Nc1ccc(-c2ccc(OC(F)(F)F)cc2)c(Cl)c1 [PT-094, N-[2-chloro-4′-(trifluoromethoxy)biphenyl-4-yl]methanesulfonamide] | 5.6 |

| Compound | inhibition at 10 µM [%] |
| --- | --- |
| CS(=O)(=O)Nc1ccc(-c2ccc(F)cc2Cl)cc1Cl [PT-098, N-(2′,3-dichloro-4′-fluorobiphenyl-4-yl)methanesulfonamide] | 36.4 |
| CS(=O)(=O)Nc1ccc(-c2ccc(OC(F)(F)F)cc2)cc1OC(F)(F)F [PT-099, N-[3,4′-bis(trifluoromethoxy)biphenyl-4-yl]methanesulfonamide] | 8.9 |
| CS(=O)(=O)Nc1ccc(-c2cccc(OC(F)(F)F)c2)cc1OC(F)(F)F [PT-100, N-[3,3′-bis(trifluoromethoxy)biphenyl-4-yl]methanesulfonamide] | -0.7 |
| CC(C)(C)OC(=O)CN(c1ccc(-c2cccc(OC(F)(F)F)c2)c(F)c1)S(C)(=O)=O [PT-101, tert-butyl N-[2-fluoro-3′-(trifluoromethoxy)biphenyl-4-yl]-N-(methylsulfonyl)glycinate] | 72.9 |
| CC(C)(C)OC(=O)CN(c1ccc(-c2ccc(F)c(Cl)c2)c(Cl)c1)S(C)(=O)=O [PT-102, tert-butyl N-(2,3′-dichloro-4′-fluorobiphenyl-4-yl)-N-(methylsulfonyl)glycinate] | 53.6 |
| CS(=O)(=O)N(CC(=O)O)c1ccc(-c2cccc(OC(F)(F)F)c2)c(F)c1 [PT-103, N-[2-fluoro-3′-(trifluoromethoxy)biphenyl-4-yl]-N-(methylsulfonyl)glycine] | 21.2 |
| CS(=O)(=O)N(CC(=O)O)c1ccc(-c2ccc(F)c(Cl)c2)c(Cl)c1 [PT-104, N-(2,3′-dichloro-4′-fluorobiphenyl-4-yl)-N-(methylsulfonyl)glycine] | 14.2 |
| Cc1cc(N([C@@H](C)C(=O)O)S(C)(=O)=O)ccc1-c1ccc(Oc2ccccc2)cc1 [PT-105, N-(2-methyl-4′-phenoxybiphenyl-4-yl)-N-(methylsulfonyl)alanine] | 5.8 |
| Cc1cc(-c2ccc(Oc3ccccc3)cc2)c(Cl)cc1N(CC(=O)O)S(C)(=O)=O [PT-106, N-(2-chloro-5-methyl-4′-phenoxybiphenyl-4-yl)-N-(methylsulfonyl)glycine] | 42 |
| Cc1cc(N(Cc2ccc(C(=O)OC(C)(C)C)cc2)S(C)(=O)=O)ccc1-c1ccc(Oc2ccccc2)cc1 [PT-107, tert-butyl 4-{[(2-methyl-4′-phenoxybiphenyl-4-yl)(methylsulfonyl)amino]methyl}benzoate] | 21.2 |
| COc1ccc(NS(C)(=O)=O)cc1-c1cccc(OC(F)(F)F)c1 [PT-109, N-[6-methoxy-3′-(trifluoromethoxy)biphenyl-3-yl]methanesulfonamide] | 35.1 |
| COc1ccc(NS(C)(=O)=O)cc1-c1ccc(Cl)c(F)c1 [PT-110, N-(4′-chloro-3′-fluoro-6-methoxybiphenyl-3-yl)methanesulfonamide] | 39.9 |
| CS(=O)(=O)N(CC(=O)O)c1ccc(-c2ccc(C(F)(F)F)cc2)c(Cl)c1 [PT-111, N-[2-chloro-4′-(trifluoromethyl)biphenyl-4-yl]-N-(methylsulfonyl)glycine] | 14.6 |
| Cc1cc(-c2ccc(Oc3ccccc3)cc2)c(Cl)cc1N(Cc1ccc(C(=O)O)cc1)S(C)(=O)=O [PT-113, 4-{[(2-chloro-5-methyl-4′-phenoxybiphenyl-4-yl)(methylsulfonyl)amino]methyl}benzoic acid] | 34 |
| O=S(=O)(Nc1ccc(-c2ccc(Oc3ccccc3)cc2)cc1OC(F)(F)F)C1CC1 [PT-114, N-[4′-phenoxy-3-(trifluoromethoxy)biphenyl-4-yl]cyclopropanesulfonamide] | 14.1 |
| N#Cc1cc(-c2ccc(Oc3ccccc3)cc2)ccc1NS(=O)(=O)C1CC1 [PT-115, N-(3-cyano-4′-phenoxybiphenyl-4-yl)cyclopropanesulfonamide] | 61.8 |
